Values of other authors as cited in US20220395499A1, “C[…] AFTER 5HT2A AGONISTS ADMINISTRATION” (Mind Medicine, Inc., priority 2021, published 2022).
Like-named read-outs stand apart in the source and are kept apart here.

Tests used:
[1] = target: T1, 5HT2A receptor (Homo sapiens, UniProt P28223)
T1 construct: host or cells: human subjects (in vivo, oral dosing)

[2] = not given; remark: listed apart in the source
[3] = target: CYP3A4 (Homo sapiens, UniProt P08684)
[4] = target: 5-HT2B receptors (Homo sapiens, UniProt P41595)
Sequence of 5-HT2B receptors (P41595 whole entry): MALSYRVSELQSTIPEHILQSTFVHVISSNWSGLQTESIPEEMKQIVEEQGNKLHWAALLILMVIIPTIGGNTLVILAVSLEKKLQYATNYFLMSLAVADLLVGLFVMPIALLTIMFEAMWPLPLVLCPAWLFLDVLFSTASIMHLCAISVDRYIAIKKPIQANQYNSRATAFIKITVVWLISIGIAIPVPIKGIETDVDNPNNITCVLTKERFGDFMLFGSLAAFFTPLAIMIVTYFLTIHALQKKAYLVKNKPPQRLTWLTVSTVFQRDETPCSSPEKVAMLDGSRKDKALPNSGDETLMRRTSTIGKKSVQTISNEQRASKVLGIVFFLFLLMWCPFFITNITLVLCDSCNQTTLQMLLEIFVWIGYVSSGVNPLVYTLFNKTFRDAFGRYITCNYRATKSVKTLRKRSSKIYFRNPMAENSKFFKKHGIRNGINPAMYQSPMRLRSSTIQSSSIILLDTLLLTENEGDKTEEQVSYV

[5] = tested on: adrenergic, dopaminergic, histaminergic, or muscarinic receptors
[6] = LSD alone, no dose stated
[7] = single 34-mg dose of pimavanserin

T1 sequence (P28223 whole entry): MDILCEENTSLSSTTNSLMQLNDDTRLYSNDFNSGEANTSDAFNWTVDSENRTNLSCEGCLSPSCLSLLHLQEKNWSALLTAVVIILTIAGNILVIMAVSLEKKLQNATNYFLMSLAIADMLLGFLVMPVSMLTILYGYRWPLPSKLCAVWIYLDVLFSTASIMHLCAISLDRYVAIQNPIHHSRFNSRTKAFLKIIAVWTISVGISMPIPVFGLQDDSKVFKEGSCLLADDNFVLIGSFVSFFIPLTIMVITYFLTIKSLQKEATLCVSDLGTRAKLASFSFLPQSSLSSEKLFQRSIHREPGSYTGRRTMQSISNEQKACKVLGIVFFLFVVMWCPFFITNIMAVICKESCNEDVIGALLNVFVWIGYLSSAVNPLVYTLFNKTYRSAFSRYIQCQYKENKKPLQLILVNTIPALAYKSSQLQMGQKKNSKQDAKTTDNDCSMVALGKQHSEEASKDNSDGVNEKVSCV
Sequence of CYP3A4 (P08684 whole entry): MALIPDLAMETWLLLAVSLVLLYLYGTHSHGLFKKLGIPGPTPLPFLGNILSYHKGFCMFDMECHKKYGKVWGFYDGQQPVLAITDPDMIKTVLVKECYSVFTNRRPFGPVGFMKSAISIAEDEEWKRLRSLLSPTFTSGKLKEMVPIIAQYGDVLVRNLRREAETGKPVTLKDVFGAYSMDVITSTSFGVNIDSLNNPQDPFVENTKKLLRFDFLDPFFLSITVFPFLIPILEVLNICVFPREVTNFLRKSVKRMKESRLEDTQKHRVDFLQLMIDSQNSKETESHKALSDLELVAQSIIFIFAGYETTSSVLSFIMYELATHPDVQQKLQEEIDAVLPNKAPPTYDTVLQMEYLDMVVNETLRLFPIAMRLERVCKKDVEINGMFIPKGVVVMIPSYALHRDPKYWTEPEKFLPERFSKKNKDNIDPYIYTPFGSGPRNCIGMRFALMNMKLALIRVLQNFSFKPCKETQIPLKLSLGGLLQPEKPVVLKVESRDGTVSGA

O=C(c1ccc(F)cc1)C1CCN(CCn2c(=O)[nH]c3ccccc3c2=O)CC1 [ketanserin]
effect on the LSD experience ([1]; ketanserin 40 mg orally 1 hour prior to a high dose of LSD of 200 μg, Liechti): prevented the LSD experience | effect on the LSD experience ([1]; ketanserin 40 mg orally 1 hour prior to oral LSD at a moderate dose (70-100 μg), Preller et al., 2017): prevent the LSD experience almost completely

CC(C)COc1ccc(CNC(=O)N(Cc2ccc(F)cc2)C2CCNCC2)cc1 [AC-279]
half-life of the active N-desmethylated metabolite (metabolite of pimavanserin): 200 h

CC(C)COc1ccc(CNC(=O)N(Cc2ccc(F)cc2)C2CCN(C)CC2)cc1 [Pimavanserin, pimavanserin]
half-life [7]: approximately 57 hours | mean (SD) apparent volume of distribution [7]: 2,173 (307) L | time to maximum plasma concentration [7]: six | plasma protein binding [2]: highly bound to plasma protein | CYP3A4 inhibition or induction [3]: does not cause significant CYP3A4 inhibition or induction | affinity for 5-HT2B receptors [4]: no affinity | antagonism of adrenergic, dopaminergic, histaminergic, or muscarinic receptors [5]: does not induce clinically significant antagonism

CCN(CC)C(=O)[C@@H]1C=C2c3cccc4[nH]cc(c34)C[C@H]2N(C)C1 [LSD, Lysergic acid diethylamide]
usual duration of action [6]: 8 to 12 h
